Results on 20 molecules are retold here after ChEMBL document CHEMBL1201862, “PubChem BioAssay data set” (2004).

Active and inactive are the calls of the source.

Assay [1] deals with Heat shock protein HSP 90-alpha (Homo sapiens, UniProt P07900). It is filed as functional, organism-based.
The nature of assay [2]: Counterscreen for inhibitors of Trypanosoma brucei methionyl tRNA synthetase (MetRS): Luminescence-based cell-based high throughput dose response assay to identify compounds that are cytotoxic to Jurkat human T lymphocyte cells. It is filed as functional.
Assay [3] has as its target T1, Methionyl-tRNA synthetase, putative (Trypanosoma brucei brucei, UniProt Q38C91).
T1 sequence (Q38C91 whole entry): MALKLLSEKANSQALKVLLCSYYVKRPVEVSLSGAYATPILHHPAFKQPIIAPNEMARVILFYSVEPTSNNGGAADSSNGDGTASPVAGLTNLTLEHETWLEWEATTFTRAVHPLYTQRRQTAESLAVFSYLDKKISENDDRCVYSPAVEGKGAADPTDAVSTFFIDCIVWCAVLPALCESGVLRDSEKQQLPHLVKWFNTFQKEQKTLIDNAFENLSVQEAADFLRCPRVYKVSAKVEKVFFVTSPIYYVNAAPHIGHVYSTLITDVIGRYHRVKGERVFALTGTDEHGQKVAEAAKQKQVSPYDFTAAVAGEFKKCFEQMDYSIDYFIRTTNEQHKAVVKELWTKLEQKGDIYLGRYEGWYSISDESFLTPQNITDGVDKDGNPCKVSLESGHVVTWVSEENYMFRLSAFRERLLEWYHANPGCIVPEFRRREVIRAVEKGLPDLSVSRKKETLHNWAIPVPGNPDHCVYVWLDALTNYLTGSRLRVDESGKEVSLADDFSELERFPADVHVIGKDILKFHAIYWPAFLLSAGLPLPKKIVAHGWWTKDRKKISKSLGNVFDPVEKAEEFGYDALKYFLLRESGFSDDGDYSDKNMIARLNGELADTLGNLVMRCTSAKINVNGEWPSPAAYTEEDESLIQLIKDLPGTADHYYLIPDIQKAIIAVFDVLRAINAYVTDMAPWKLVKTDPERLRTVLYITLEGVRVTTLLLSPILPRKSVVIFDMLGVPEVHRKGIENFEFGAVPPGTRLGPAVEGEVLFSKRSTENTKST
It counts as functional, Trypanosoma brucei brucei strain 927/4 GUTat10.1.

Assay [4] deals with T1, Methionyl-tRNA synthetase, putative. It is filed as functional, Trypanosoma brucei brucei strain 927/4 GUTat10.1. The source holds these as a separate data set.
Assay [5] concerns the target Nuclear receptor subfamily 5 group A member 2 (Homo sapiens, UniProt O00482). It is filed as functional, cell-based.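 Also: HEK293T cells transfected with LRH-1 and a StAR promoter luciferase reporter; potency for inhibitors that lower LRH-1 driven reporter light.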
Assay [6] can be described thus: nonselective StAR promoter luciferase inhibitors – cell-based, luminescence, luciferase reporter, counter-screen for LRH-1 inverse agonist project, dose response (AID 651969). It counts as functional.
Another assay addresses Steroidogenic factor 1 (Homo sapiens, UniProt Q13285). The assay can be described thus: Counterscreen for inverse agonists of the liver receptor homolog-1 (LRH-1; NR5A2): Luminescence-based cell-based high throughput dose response assay to identify inverse agonists of the Steroidogenic Factor 1 Nuclear Receptor (SF1; NR5A1). It is filed as functional. (In general: A counterscreen serves to expose hits that act by an unwanted route or on another target.)

Another assay concerns the target Prothrombin (Bos taurus, UniProt P00735). The assay can be described thus: thrombin protease inhibitors – biochemical, fluorescence polarization, uHTS hits, dose response (AID 602369). It is filed as functional. (Fluorescence polarisation rises when a labelled molecule tumbles more slowly, as on binding a larger partner.)
Assay [7] concerns the target 72 kDa type IV collagenase (Homo sapiens, UniProt P08253). The experiment in a line: Dose Response validation of uHTS RPN11 inhibitor hits using a MMP-2 Fluorescence assay. It is filed as functional.
In assay [8] the target is 26S proteasome non-ATPase regulatory subunit 14 (Homo sapiens, UniProt O00487). The assay can be described thus: inhibition of proteasome subunit RPN11 – biochemical, fluorescence polarization, uHTS hits, confirmation (AID 602368). It counts as functional.
Assay [9] is described as follows: viability loss in CEM21 cells – cell-based, CellTiter-Glo luminescence, cherry-picked, cytotoxicity control for viral fusion inhibitor project, dose response (AID 652042).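 Also: potency for signal decrease meaning cytotoxicity.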 It is filed as functional. For orientation: In ATP-based viability assays light output follows the ATP content of the culture.
Assay [10] in a line: off-target signal loss in HeLa-CEM21 co-culture – HeLa F-luc CTL cells, cherry-picked, counter-screen for HIV-1 Env fusion inhibitor project, dose response (AID 652040).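 Also: potency for signal decrease marking cytotoxic or nonspecific inhibition.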 It is filed as functional, cell-based.
Assay [11] in a line: blockers of HIV-1 envelope-mediated cell-cell fusion – cherry-pick, dose response (AID 652057). It counts as functional, cell-based.
Assay [12] can be described thus: blockers of HIV-1 ZM109 envelope-driven cell-cell fusion – HeLa effector, CEM target cells, luciferase, cherry-pick, dose response (AID 652058).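 Also: luciferase signal from HIV-1 Env mediated cell-cell fusion of effector and target cells.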 It counts as functional, cell-based.
Assay [13] is described as follows: HIV-1 AD8 envelope cell-cell fusion blockers – cherry-pick, dose response (AID 652062).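 Also: luciferase signal from cell-cell fusion driven by HIV-1 clade B AD8 Env; potency is for inhibitors of fusion seen as a drop in luminescence.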 It counts as functional, cell-based.
The next assay has as its system INS1. The assay can be described thus: INS-1E survival protection against cytokine death – cell-based, luminescence, retest, dose response (AID 449756).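 Also: cell death triggered by IL-1 beta plus TNF-alpha plus IFN-gamma mixture; protective hits raise ATP signal compared with cytokine alone wells.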 It is filed as functional. As to conditions: Rattus norvegicus.
A further assay concerns the target Cytochrome P450 2C9 (Homo sapiens, UniProt P11712).
The target in assay [14] is T2, Type-1 angiotensin II receptor (Homo sapiens, UniProt P30556).
T2 sequence (P30556 whole entry): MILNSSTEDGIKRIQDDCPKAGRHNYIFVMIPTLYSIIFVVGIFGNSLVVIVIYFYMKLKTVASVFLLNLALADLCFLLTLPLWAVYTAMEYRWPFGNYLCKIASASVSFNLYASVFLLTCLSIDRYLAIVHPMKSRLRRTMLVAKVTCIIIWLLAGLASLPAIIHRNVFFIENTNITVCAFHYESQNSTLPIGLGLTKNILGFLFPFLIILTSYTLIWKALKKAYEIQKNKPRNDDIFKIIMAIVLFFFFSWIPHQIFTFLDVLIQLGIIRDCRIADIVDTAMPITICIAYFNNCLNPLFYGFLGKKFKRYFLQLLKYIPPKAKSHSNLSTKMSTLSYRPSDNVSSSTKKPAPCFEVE
The assay can be described thus: antagonism of angiotensin II type 1 receptor – cell-based, uHTS hits, selectivity assay for APJ receptor antagonist project, dose response (AID 463214).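 Also: antagonist potency against angiotensin II stimulated AT1 response.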 It is filed as functional.

A further assay has as its target Beta-galactosidase (Escherichia coli, UniProt Q8VNN2). The experiment in a line: PubChem AID 485352. It is filed as functional.
The subject of assay [15] is Streptococcus sp. 'group A'. The experiment in a line: Streptococcus pyogenes SK(-)GAS viability under kanamycin – luminescence, BacTiterGlo, confirmation, counter-screen for streptokinase expression inhibitor project, dose response (AID 1900). It counts as functional, organism-based.
The test system of a further assay is Streptococcus. The assay can be described thus: GAS UMAA2166 growth inhibition – luminescence, BacTiterGlo, counter-screen for streptokinase expression inhibitor project, dose response (AID 1915).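 Also: potency for reduction of bacterial viability or growth.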 It is filed as functional, organism-based.
Assay [16] concerns the target T3, Probable nicotinate-nucleotide adenylyltransferase (Staphylococcus aureus (strain N315), UniProt P65502). It counts as functional, Staphylococcus aureus subsp. aureus N315. As to conditions: read-out: IC50_Mean.
In assay [17] the target is T3, Probable nicotinate-nucleotide adenylyltransferase. It is filed as functional, Staphylococcus aureus subsp. aureus N315.
Assay [18] can be described thus: inhibition of ARNT PAS-B/TACC3 complex formation – biochemical, AlphaScreen, cherry-picked samples, confirmation (AID 651703).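 Also: His-tagged ARNT PAS-B domain paired with GST-TACC3 E629A dimer coactivator fragment; potency of inhibitors that break up the complex and lower AlphaScreen signal.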 It counts as functional, Homo sapiens.
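For IC50 Mean in this document: confirmatory dose-response retesting of NadD inhibitor hits first found in an ultra-high-throughput screen.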

Steroidogenic factor 1, sequence (Q13285 whole entry): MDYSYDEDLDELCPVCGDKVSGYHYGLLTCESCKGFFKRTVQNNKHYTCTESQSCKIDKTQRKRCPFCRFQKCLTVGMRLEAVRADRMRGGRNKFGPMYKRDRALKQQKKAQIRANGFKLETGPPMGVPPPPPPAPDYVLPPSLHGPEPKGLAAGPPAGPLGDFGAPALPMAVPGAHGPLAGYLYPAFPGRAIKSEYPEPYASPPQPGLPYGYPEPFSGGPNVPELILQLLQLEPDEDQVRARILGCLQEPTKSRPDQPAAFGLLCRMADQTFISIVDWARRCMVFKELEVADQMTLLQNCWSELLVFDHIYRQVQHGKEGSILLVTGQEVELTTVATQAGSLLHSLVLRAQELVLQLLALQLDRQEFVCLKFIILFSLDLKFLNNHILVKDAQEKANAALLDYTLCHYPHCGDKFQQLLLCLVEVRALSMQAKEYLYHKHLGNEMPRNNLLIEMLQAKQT
26S proteasome non-ATPase regulatory subunit 14, sequence (O00487 whole entry, the tested form may be a part): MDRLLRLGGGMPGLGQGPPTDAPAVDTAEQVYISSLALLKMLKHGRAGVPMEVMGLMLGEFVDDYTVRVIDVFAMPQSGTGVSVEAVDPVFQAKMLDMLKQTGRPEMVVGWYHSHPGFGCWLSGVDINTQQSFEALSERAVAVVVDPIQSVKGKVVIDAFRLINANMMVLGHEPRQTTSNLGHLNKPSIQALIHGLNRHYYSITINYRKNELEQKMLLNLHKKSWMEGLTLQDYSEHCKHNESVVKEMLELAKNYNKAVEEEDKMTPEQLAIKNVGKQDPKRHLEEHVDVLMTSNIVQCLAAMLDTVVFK
Beta-galactosidase, sequence (Q8VNN2 whole entry): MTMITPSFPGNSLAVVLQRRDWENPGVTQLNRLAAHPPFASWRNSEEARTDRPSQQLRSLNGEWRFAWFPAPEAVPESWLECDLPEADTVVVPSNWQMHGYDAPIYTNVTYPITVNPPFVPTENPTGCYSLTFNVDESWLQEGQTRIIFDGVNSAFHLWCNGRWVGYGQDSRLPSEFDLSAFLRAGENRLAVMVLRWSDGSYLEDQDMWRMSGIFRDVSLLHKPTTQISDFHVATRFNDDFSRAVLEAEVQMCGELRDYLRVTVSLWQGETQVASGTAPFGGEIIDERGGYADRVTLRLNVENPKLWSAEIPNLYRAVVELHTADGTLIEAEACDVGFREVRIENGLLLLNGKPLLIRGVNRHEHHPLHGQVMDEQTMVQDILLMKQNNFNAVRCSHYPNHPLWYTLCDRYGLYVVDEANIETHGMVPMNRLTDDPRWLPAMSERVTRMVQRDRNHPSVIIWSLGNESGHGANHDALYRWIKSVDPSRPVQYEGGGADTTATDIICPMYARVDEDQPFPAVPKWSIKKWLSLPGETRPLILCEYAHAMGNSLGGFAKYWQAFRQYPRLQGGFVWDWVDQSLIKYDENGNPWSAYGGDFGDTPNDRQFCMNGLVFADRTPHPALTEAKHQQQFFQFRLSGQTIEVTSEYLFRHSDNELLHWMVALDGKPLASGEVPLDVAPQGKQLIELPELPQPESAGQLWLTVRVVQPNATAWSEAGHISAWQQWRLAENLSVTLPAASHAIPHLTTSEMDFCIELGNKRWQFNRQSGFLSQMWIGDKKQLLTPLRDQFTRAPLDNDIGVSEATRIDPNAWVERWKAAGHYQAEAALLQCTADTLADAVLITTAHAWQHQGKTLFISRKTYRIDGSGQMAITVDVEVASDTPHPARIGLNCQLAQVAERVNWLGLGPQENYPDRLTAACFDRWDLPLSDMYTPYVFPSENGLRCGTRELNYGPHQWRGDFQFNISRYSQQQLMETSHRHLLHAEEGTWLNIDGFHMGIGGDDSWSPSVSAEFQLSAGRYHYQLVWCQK
72 kDa type IV collagenase, sequence (P08253 whole entry): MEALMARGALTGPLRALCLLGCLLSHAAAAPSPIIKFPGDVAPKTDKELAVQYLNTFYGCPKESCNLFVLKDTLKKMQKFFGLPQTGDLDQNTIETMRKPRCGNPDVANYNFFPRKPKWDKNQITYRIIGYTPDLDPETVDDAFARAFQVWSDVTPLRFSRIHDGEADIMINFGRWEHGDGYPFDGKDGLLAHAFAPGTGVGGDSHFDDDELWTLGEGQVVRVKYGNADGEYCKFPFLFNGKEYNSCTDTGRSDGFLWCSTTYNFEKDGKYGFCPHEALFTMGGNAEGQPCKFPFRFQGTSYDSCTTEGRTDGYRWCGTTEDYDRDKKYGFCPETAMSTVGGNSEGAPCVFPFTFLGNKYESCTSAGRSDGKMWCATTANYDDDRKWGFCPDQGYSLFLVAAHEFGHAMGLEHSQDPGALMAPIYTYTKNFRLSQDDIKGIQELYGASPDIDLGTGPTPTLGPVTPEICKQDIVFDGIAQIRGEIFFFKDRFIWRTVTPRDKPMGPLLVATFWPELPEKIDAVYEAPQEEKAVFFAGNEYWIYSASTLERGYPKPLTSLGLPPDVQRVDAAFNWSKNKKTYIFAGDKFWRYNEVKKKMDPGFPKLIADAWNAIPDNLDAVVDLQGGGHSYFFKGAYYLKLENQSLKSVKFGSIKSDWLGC
Nuclear receptor subfamily 5 group A member 2, sequence (O00482 whole entry): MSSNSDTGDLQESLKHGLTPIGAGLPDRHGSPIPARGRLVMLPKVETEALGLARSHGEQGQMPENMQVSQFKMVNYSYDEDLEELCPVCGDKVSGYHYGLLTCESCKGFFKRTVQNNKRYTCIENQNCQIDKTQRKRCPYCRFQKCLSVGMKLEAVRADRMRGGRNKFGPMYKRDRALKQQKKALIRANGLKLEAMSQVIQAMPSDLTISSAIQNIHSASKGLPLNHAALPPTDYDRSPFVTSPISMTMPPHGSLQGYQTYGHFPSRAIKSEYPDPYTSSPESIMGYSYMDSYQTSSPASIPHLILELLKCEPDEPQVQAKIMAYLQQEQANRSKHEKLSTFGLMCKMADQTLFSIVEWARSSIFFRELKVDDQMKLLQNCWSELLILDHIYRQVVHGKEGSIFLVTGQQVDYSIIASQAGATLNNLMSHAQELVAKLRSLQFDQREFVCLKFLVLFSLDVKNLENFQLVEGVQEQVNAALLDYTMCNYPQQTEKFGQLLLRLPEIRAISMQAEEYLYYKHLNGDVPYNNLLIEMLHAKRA
T3 sequence (P65502 whole entry): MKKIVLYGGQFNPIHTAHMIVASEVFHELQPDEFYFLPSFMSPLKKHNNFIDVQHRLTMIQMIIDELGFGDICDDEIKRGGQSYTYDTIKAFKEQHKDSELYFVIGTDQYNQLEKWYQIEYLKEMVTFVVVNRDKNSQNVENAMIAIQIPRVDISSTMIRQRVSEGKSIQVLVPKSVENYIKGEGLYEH
Cytochrome P450 2C9, sequence (P11712 whole entry): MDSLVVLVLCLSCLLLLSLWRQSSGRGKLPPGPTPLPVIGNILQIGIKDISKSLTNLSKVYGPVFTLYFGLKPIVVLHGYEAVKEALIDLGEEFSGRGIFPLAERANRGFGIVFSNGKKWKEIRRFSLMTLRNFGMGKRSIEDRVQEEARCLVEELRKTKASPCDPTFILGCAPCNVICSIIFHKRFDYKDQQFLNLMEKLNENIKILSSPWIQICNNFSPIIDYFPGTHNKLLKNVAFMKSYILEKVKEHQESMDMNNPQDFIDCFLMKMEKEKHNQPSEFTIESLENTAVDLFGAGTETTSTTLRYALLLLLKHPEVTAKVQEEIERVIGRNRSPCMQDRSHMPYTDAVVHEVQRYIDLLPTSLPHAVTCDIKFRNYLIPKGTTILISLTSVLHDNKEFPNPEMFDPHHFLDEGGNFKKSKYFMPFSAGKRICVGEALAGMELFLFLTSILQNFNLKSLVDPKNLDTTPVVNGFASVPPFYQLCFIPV

As a reminder, the AC50 is the midpoint of the concentration-response curve, whichever way the signal moves. For the molecule `Cc1cc(Cl)ccc1C(=O)C1CCCN(C(=O)c2cncs2)C1` (configuration not stated), the concentration at half-maximal activity (AC50) in assay [1] was 3.92 µM (active).
For the molecule `Cc1[nH]c2ccccc2c1C(=O)C(=O)NCCc1ccc(S(N)(=O)=O)cc1`, the IC50 is 83.3 µM (inactive) in assay [2], 6.63 µM (active) in assay [3] and 14.8 µM (inactive) in assay [4].
For the molecule `CCCc1nnc(SCC(=O)Nc2ccc(C(=O)OCC)cc2)o1`, the values for the IC50 (in [5]; in assay [6]; at Steroidogenic factor 1) were 35.9 µM (inactive), 35.9 µM (inactive) and 1.61 µM (active), respectively.
As to `COc1ccc(NN=C2C(=O)CC(C)(C)CC2=O)c(OC)c1`, the IC50 at Prothrombin was 27.3 µM (active); in [7], > 100 µM (inactive); in [8], 27 µM (active).
On to `CCc1ccccc1NC(=O)CSc1nnc([C@@H]2CCCN2C(=O)OC(C)(C)C)o1`, for which the IC50 in assay [5] is 12 µM (inactive); in assay [6], 35.9 µM (inactive); on Steroidogenic factor 1, 1.86 µM (active).
Consider `O=C(CCCNC(=O)c1ccc(Cl)cc1)OCc1cccc(Br)c1`, for which, in [1], the half-maximal activity concentration (AC50) is 5.23 µM (active).
As for `CCOc1ccc(CCNC(=O)c2nnn(CC(=O)Nc3ccc(C)cc3)c2N)cc1OCC`, the values for the IC50 (at Prothrombin; in assay [7]; in assay [8]) were > 100 µM (inactive), > 100 µM (inactive) and 13.1 µM (active), respectively.
With `CCNS(=O)(=O)c1ccc(CCC(=O)Nc2cc(Cl)ccc2Oc2ccccc2)cc1`, the AC50 in assay [9] is 40.5 µM (active); in assay [10] it was 12 µM (active); in [11] it was 5.54 µM (active); in assay [12], 2.17 µM (active); in assay [13], 11.6 µM (active).
Take `CCn1c(-c2ccc(C)cc2)nn(CC(=O)NCCc2ccccc2)c1=S`: the half-maximal activity concentration (AC50) in the assay on INS1 is 5.9 µM (active); in assay [9], 51.1 µM (active); in assay [10], 7.04 µM (active); in assay [11], 8.88 µM (active); in assay [12] it was 4.85 µM (active); in assay [13], 6.95 µM (active).
`Clc1ccccc1-c1ccc2ncnc(NCc3cccnc3)c2c1`: the values for the IC50 in assay [2], in assay [3] and in assay [4] were 83.3 µM (inactive), 17.1 µM (inactive) and 14.1 µM (inactive), respectively. In addition, the AC50 at Cytochrome P450 2C9 was 0.794 µM (inconclusive).
Consider `CC(=O)c1ccc(NC(=O)c2ccc(-n3cncn3)c([N+](=O)[O-])c2)cc1`, for which the values for the IC50 in [2], in [3] and in [4] were 83.3 µM (inactive), 4.12 µM (active) and 7.16 µM (active), respectively.
In general, EC50 refers to the concentration needed to bring the measured effect to its halfway point. In the case of `NC(=O)c1ccccc1NCC(=O)c1ccc(F)cc1`, the IC50 in assay [14] is on record as 21.6 µM (not active). In addition, the EC50 at Beta-galactosidase was > 40 µM (inactive).
For `Fc1ccc(NC(S)=Nc2ccc(Cl)cc2Cl)cc1`, in that order: > 40 µM (not active) and > 40 µM (inactive).
Regarding `CC(=O)c1cccc(NC(=O)CCc2nc3sc4c(c3c(=O)[nH]2)CCCC4)c1`, the IC50 on Prothrombin was 35.5 µM (active); in [7] it was > 100 µM (inactive); in [8] it was 33.9 µM (active).
Consider `Oc1cccc2ccc(/C=C/c3cccs3)nc12`, for which the figures for the EC50 (in assay [15]; in the assay with Streptococcus; at Beta-galactosidase) were 1.92 µM (active), 4.2 µM (active) and > 40 µM (inactive), respectively. For the same molecule, the IC50 in assay [14] is 10.3 µM (active).
As to `CC1=C(C(=O)c2ccccc2)C(c2ccc(N3CCOCC3)cc2)NC(=O)N1` (configuration not stated), the figures for the IC50 (on Prothrombin; in [7]; in [8]) were 15.5 µM (active), > 100 µM (inactive) and 17.1 µM (active), respectively.
On to `N#CCSc1ccccc1NC(=O)CN1C(=O)C2CC=CCC2C1=O` (configuration not stated), for which the results for the IC50 (in assay [5]; in assay [6]; on Steroidogenic factor 1) were 6.85 µM (active), 35.9 µM (inactive) and 2.83 µM (active), respectively.
Consider `Cc1ccc(Nc2nnc(SCC(O)=C(C#N)c3nc4ccccc4[nH]3)s2)c(C)c1`, for which the IC50 is 26.7 µM (active) in assay [16] and 8.52 µM (active) in assay [17].
As for `O=C(N[C@H]1CC[C@H](CCn2cc(-c3ccccn3)nn2)O[C@H]1CO)c1ccccc1`, the AC50 in assay [18] is 78.4 µM (active).
In the case of `C=CCn1c(=O)/c(=C2/Sc3cc(OC)ccc3N2C)s/c1=C1\C(=O)N(CC)C(=S)N1C`, the IC50 in assay [14] is given as > 40 µM (not active). Besides, the EC50 on Beta-galactosidase was > 40 µM (inactive).
